# Read-outs that look alike come from different tables or passages of the source.
# Legend:
# CYP3A4 = conditions: in the presence of the inhibitor; cited from earlier work
# CYP3A [1] = tested on: CYP3A; design: method as in PMID 15342469; conditions: read-out: IC50, CYP3A-mediated testosterone hydroxylase activity; cited from earlier work
# CYP2D6 [2] = molecular target: CYP2D6 (Homo sapiens, UniProt P10635); experiment: CYP2D6 inhibition in HLMs (dextromethorphan)
# Protocol: (§3) Lignans were first dissolved in methanol. The final organic solvent concentration in the incubation media was ≤1.0% (v/v). The microsomal incubation was conducted using two cocktail sets containing non-interactive substrates: set A containing phenacetin, bupropion, amodiaquine, diclofenac, S-mephenytoin, and dextromethorphan as substrates for CYP1A2, CYP2B6, CYP2C8, CYP2C9, CYP2C19, and CYP2D6, respectively; and set B containing coumarin and chlorzoxazone as substrates for CYP2A6 and CYP2E1, and midazolam, nifedipine, and testosterone as substrates for CYP3A4 (Table 1). These substrates are known to be selective for each P450 isoforms. Incubation mixtures containing potassium phosphate buffer (0.1 M, pH 7.4), pooled HLMs (0.25 mg/mL), P450 probe substrate cocktails, and lignan (0~50 μM) were pre-incubated at 37 °C (5 min). Following pre-incubation, an NADPH generating system (1.3 mM NADP^+, 3.3 mM G6P, 1 unit/mL G6PDH, and 3.3 mM MgCl2) was added to initiate the reaction, and further incubated for 10 min. The reaction was quenched with 50 μL of cold acetonitrile containing internal standard (IS; 7 nM trimipramine). After centrifugation at 14,000 rpm (5 min at 4 °C), aliquots of supernatants were filtered through a 0.2 μm membrane filter and were measured by liquid chromatography-tandem mass spectrometry (LC-MS/MS). All microsomal incubations were performed in triplicate.
# CYP1A2 = tested on: CYP1A2; design: method as in PMID 15342469; conditions: cited from earlier work
# recombinant CYP3A4 [3] = conditions: recombinant CYP3A4 isoform; read-out: IC50, CYP3A-mediated midazolam 1′-hydroxylation; cited from earlier work
# CYP2B6 = molecular target: T1, CYP2B6 (Homo sapiens, UniProt P20813); experiment: CYP2B6 inhibition in HLMs (bupropion); format: in vitro ADME
# T1 construct: pooled HLMs (0.25 mg/mL); tissue XenoTech H2630; host or cells: pooled human liver microsomes, mixed gender
# T1 sequence (P20813 1-491): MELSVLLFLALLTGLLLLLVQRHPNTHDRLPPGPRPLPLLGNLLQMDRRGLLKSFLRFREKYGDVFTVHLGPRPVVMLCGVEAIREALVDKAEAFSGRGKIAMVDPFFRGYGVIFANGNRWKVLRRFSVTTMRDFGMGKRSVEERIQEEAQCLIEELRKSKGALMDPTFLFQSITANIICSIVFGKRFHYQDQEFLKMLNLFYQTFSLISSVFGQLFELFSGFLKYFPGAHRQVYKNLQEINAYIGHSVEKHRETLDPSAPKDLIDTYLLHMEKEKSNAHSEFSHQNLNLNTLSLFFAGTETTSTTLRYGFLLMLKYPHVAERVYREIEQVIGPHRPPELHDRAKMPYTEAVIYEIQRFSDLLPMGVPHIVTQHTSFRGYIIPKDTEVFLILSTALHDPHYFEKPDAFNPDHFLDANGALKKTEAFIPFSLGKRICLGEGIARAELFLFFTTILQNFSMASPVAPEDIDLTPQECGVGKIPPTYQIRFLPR
# Protocol: (§1) Lignans were first dissolved in methanol. […] All microsomal incubations were performed in triplicate.
# CYP2C19 [4] = tested on: CYP2C19; design: method as in PMID 15342469; conditions: cited from earlier work
# CYP2D6 [5] = tested on: CYP2D6; design: method as in PMID 15342469; conditions: cited from earlier work
# UGT1A3 [6] = molecular target: T2, UGT1A3 (Homo sapiens, UniProt P35503); experiment: UGT1A3 inhibition in HLMs (chenodeoxycholic acid); format: in vitro ADME; conditions: average in triplicate, read-out: IC50, UGT 1A3
# T2 construct: pooled HLMs (0.25 mg/mL); tissue XenoTech H2630; host or cells: pooled human liver microsomes, mixed gender
# T2 sequence (P35503 29-534): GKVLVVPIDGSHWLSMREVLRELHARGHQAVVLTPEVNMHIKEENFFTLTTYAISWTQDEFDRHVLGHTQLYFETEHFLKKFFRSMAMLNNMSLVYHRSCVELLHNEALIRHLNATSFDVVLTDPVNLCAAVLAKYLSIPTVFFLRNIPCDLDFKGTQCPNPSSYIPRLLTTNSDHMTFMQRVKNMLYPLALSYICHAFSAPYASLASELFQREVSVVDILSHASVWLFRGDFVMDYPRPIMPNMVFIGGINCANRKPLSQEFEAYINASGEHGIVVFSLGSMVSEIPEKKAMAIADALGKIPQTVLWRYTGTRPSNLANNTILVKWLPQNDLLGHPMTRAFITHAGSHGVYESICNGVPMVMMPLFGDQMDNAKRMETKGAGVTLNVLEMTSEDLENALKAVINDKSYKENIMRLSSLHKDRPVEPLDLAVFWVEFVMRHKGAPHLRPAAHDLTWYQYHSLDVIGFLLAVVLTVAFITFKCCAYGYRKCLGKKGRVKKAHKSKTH
# Protocol: (§2) The inhibitory potential of six lignans on six UGT activities was evaluated using the previously developed cocktail method with slight modifications. […] These substrates are known to be selective for each UGT isoforms.
# UGT1A3 [7] = tested on: UGT1A3; design: method as in PMID 23339253; conditions: cited from earlier work
# six UGT enzymes = experiment: UGT inhibition in HLMs, summary statements over several isoforms; format: in vitro ADME, human; conditions: UGTs other than UGT1A1 and UGT1A3
# Protocol: as §2
# CYP2C9 [8] = tested on: CYP2C9; design: method as in PMID 15342469; conditions: cited from earlier work
# CYP2C19 [9] = molecular target: CYP2C19 (Homo sapiens, UniProt P33261); experiment: in vitro; conditions: microsomes, pH 7.4, IC50 Shift
# Protocol: as §3
# CYP2C9 [10] = molecular target: CYP2C9 (Homo sapiens, UniProt P11712); experiment: in vitro; conditions: microsomes, pH 7.4, IC50 Shift
# Protocol: as §3
# CYP3A [11] = conditions: rats; cited from earlier work
# CYP3A [12] = tested on: CYP3A; design: method as in PMID 20448858; conditions: read-out: IC50, CYP3A-mediated midazolam hydroxylation; cited from earlier work
# recombinant CYP3A4 [13] = conditions: rCYP3A4, fluorescent substrate; cited from earlier work
# nine P450 enzymes = experiment: P450 inhibition in HLMs, summary statements over several isoforms; format: in vitro ADME, human; conditions: HLMs pre-incubated in the presence of NADPH
# Protocol: as §1
# [14] = tested on: P450s other than CYP1A2, CYP2B6, CYP2C19, CYP2E1 and CYP3A (range over several isoforms); experiment: as above; format: in vitro ADME, human; conditions: human, pooled human liver microsomes, pH 7.4, probe P450 probe substrate cocktails (sets A and B); HLMs; reversible inhibition; P450s other than CYP1A2, CYP2B6, CYP2C19, CYP2E1 and CYP3A
# Protocol: as §1
# [15] = IC50 TDI, 30 min pre-incubation with NADPH generating system
# [16] = 30 min pre-incubation with NADPH generating system, read-out: IC50 TDI, CYP2B6
# [17] = reversible inhibition, read-out: IC50 RI, CYP2B6
# Sequence of CYP2D6 (Homo sapiens, UniProt P10635) (P10635 whole entry): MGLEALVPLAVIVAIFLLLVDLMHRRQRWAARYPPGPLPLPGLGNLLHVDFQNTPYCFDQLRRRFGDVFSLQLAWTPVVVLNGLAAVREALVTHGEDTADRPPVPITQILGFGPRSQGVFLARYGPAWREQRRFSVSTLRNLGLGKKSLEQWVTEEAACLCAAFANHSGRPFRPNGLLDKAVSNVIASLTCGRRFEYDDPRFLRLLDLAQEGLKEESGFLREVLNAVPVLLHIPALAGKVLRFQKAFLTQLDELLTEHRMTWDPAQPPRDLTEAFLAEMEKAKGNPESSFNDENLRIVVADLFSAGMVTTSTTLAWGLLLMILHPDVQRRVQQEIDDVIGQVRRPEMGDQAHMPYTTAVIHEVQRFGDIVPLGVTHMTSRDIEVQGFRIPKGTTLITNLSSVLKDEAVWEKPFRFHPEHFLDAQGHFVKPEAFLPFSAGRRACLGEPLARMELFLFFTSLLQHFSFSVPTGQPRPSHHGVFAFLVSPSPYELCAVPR
# Sequence of CYP2C9 (Homo sapiens, UniProt P11712) (P11712 whole entry): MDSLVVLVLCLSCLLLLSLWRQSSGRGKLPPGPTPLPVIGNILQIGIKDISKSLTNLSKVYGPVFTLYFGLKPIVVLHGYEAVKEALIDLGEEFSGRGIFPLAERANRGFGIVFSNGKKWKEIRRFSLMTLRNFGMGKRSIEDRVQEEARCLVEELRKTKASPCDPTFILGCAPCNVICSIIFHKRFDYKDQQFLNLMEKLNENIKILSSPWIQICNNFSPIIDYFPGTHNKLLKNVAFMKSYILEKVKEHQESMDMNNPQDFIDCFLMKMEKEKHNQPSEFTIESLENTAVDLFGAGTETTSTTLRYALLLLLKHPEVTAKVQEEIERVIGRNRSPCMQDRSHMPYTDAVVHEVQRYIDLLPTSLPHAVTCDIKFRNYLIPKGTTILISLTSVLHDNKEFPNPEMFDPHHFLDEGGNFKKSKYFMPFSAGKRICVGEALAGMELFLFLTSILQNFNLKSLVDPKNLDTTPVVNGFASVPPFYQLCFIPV
# Sequence of CYP2C19 (Homo sapiens, UniProt P33261) (P33261 whole entry): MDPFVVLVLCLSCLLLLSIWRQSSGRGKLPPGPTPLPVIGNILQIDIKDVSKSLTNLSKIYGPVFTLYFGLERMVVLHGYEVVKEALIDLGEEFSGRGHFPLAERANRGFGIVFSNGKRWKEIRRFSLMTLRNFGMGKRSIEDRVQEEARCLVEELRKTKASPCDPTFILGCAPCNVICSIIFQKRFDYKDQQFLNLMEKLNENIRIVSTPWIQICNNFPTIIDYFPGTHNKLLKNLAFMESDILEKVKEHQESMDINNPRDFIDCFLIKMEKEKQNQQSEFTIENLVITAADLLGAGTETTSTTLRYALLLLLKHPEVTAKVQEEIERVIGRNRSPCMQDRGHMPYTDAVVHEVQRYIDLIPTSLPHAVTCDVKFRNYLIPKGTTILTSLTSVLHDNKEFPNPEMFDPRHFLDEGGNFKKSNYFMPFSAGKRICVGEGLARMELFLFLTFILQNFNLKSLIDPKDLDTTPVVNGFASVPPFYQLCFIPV
SMILES,"IC50 (CYP2D6 [2]; IC50 RI, reversible inhibition)",IC50 (CYP2D6 [2]; [15]),IC50 (CYP1A2),IC50 (CYP2B6; [16]),IC50 (CYP2B6; [17]),IC50 (CYP2C19 [4]),IC50 (CYP2D6 [5]),IC50 (UGT1A3 [6]),IC50 (CYP2C9 [8]),other results
"COc1cc2c(c(OC)c1OC)-c1c(cc3c(c1OC)OCO3)C[C@H](C)[C@](C)(O)[C@H]2OC(=O)c1ccccc1 [Gomisin C, gomisin C]",> 50 µM,> 50 µM,> 10 µM,> 50 µM,33.1 µM,> 10 µM,> 10 µM,15 µM,> 10 µM,Estimated increase of AUC of drugs predominantly biotransformed by CYP3A4 (CYP3A4): 22–321%; IC50 (CYP3A [1]): 0.26 to 0.62 µM; IC50 (recombinant CYP3A4 [3]): 0.059 µM; IC50 (UGT1A3 [7]): 12.5 µM; IC50 (six UGT enzymes): > 50 µM
"COc1cc2c(c(OC)c1OC)-c1c(cc3c(c1OC)OCO3)C[C@H](C)[C@H](C)C2 [Gomisin N, gomisin N]",42 µM,> 50 µM,> 10 µM,> 50 µM,38.3 µM,> 10 µM,> 10 µM,26.9 µM,> 10 µM,"IC50 shift at 10 min (CYP2C19 [9]): > 1.8; IC50 shift at 10 min (CYP2C9 [10]): > 1.8; Oral bioavailability of drugs metabolized by CYP3A, including midazolam (CYP3A [11]): increase; IC50 (CYP3A [12]): 5.5 µM"
"COc1cc2c(c(OC)c1OC)-c1c(cc(OC)c(OC)c1OC)C[C@](C)(O)[C@@H](C)C2 [Schisandrin, schisandrin]",40.2 µM,> 50 µM,–,> 50 µM,14.7 µM,–,–,> 50 µM,–,IC50 (recombinant CYP3A4 [13]): 32 µM; Inhibitory potential against nine P450s after pre-incubation with NADPH compared to untreated HLMs (nine P450 enzymes): did not increase; IC50 at 10 min [14]: 22 to 43 µM
"COc1c2c(cc3c1-c1c(cc4c(c1OC)OCO4)C[C@H](C)[C@H](C)C3)OCO2 [Wuweizisu C, wuweizisu C]",20.3 µM,28.2 µM,–,1.4 µM,2.9 µM,–,–,> 50 µM,–,–

# — publication PMC8000448, “Inhibitory Effects of Schisandra Lignans on Cytochrome P450s and Uridine 5′-Diphospho-Glucuronosyl Transferases in Human Liver Microsomes” (Pharmaceutics, 2021)
